Measured values as given in patent US20250179073A1, “TRICYCLIC HETEROCYCLE COMPOUNDS AS IAP ANTAGONISTS” (Ascentage Pharma (Suzhou) Co., Ltd., priority 2022, published 2025).

Experiments:
EVSA-T cells = assay: Cell proliferation assay (CellTiter-Glo), EVSA-T; assay type: cell-based; conditions: Homo sapiens, EVSA-T, 72 h, 72 h treatment, Celltiter-Glo luminescence
Summary of the method: (§1)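 MDA-MB-231 (RPMI-1640/10% FBS) and EVSA-T (MEM/10% FBS) cells, 10000 cells/well, exposed 72 h to compound at […]. Viability read by CellTiter-Glo luminescence after 15 min at room temperature. IC50 from control-normalised curve fitting.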

MDA-MB-231 cells = assay: Cell proliferation assay (CellTiter-Glo), MDA-MB-231; assay type: cell-based; conditions: Homo sapiens, MDA-MB-231, 72 h, 72 h treatment, Celltiter-Glo luminescence
Summary of the method: as §1

Row | IC50 (MDA-MB-231 cells) [nM] | Structure (SMILES) | IC50 (EVSA-T cells) [nM]
1 | 74 | CCOC(=O)c1cn2c3c(cc(Cc4ccc(F)cc4)c2n1)N(C(=O)CN1C[C@@H](C)NC[C@@H]1CN1CCOC[C@H]1C)CC3(C)C [Example 18, ethyl 4-(4-fluorobenzyl)-8,8-dimethyl-6-(2-((2R,5R)-5-methyl-2-(((R)-3-methylmorpholino)methyl)piperazin-1-yl)acetyl)-7,8-dihydro-6H-imidazo[1,2-a]pyrrolo[2,3-e]pyridine-2-carboxylate] | 14
2 | 140 | C[C@@H]1CN(CC(=O)N2CC(C)(C)c3c2cc(Cc2ccc(F)cc2)c2nc(C(=O)NC4CC4)nn32)[C@@H](CN2CCOC[C@H]2C)CN1 [Compound 257, N-cyclopropyl-4-(4-fluorobenzyl)-8,8-dimethyl-6-(2-((2R,5R)-5-methyl-2-(((R)-3-methylmorpholino)methyl)piperazin-1-yl)acetyl)-7,8-dihydro-6H-pyrrolo[2,3-e][1,2,4]triazolo[1,5-a]pyridine-2-carboxamide] | 11.6
3 | 110 | C[C@@H]1CN(CC(=O)N2CC(C)(C)c3c2cc(Cc2ccc(F)cc2)c2nc(C(N)=O)cn32)[C@@H](CN2CCOC[C@H]2C)CN1 [Example 20, 4-(4-fluorobenzyl)-8,8-dimethyl-6-(2-((2R,5R)-5-methyl-2-(((R)-3-methylmorpholino)methyl)piperazin-1-yl)acetyl)-7,8-dihydro-6H-imidazo[1,2-a]pyrrolo[2,3-e]pyridine-2-carboxamide] | 13
4 | 14 | C[C@@H]1CN(CC(=O)N2CC(C)(C)c3c2cc(Cc2ccc(F)cc2)c2nc(NC=O)nn32)[C@@H](CN2CCOC[C@H]2C)CN1 [Compound 239, N-(4-(4-fluorobenzyl)-8,8-dimethyl-6-(2-((2R,5R)-5-methyl-2-(((R)-3-methylmorpholino)methyl)piperazin-1-yl)acetyl)-7,8-dihydro-6H-pyrrolo[2,3-e][1,2,4]triazolo[1,5-a]pyridin-2-yl)formamide] | 0.5
5 | 100 | C[C@@H]1CN(CC(=O)N2CC(C)(C)c3c2cc(Cc2ccc(F)cc2)c2ncc(Br)n32)[C@@H](CN2CCOC[C@H]2C)CN1 [Compound 119, 1-(1-bromo-4-(4-fluorobenzyl)-8,8-dimethyl-7,8-dihydro-6H-imidazo[1,2-a]pyrrolo[2,3-e]pyridin-6-yl)-2-((2R,5R)-5-methyl-2-(((R)-3-methylmorpholino)methyl)piperazin-1-yl)ethan-1-one] | 6
6 | 150 | C[C@@H]1CN(CC(=O)N2CC(C)(C)c3c2cc(Cc2ccccc2F)c2ncnn32)[C@@H](CN2CCOC[C@H]2C)CN1 [Compound 38, 1-(4-(2-fluorobenzyl)-8,8-dimethyl-7,8-dihydro-6H-pyrrolo[2,3-e][1,2,4]triazolo[1,5-a]pyridin-6-yl)-2-((2R,5R)-5-methyl-2-(((R)-3-methylmorpholino)methyl)piperazin-1-yl)ethan-1-one] | 6
7 | 28 | C[C@@H]1CN(CC(=O)N2CC(C)(C)c3c2cc(Cc2ccc(F)cc2)c2ncnn32)[C@@H](CN2CCN(CC(F)(F)F)C[C@H]2C)CN1 [Compound 63, 1-(4-(4-fluorobenzyl)-8,8-dimethyl-7,8-dihydro-6H-pyrrolo[2,3-e][1,2,4]triazolo[1,5-a]pyridin-6-yl)-2-((2R,5R)-5-methyl-2-(((R)-2-methyl-4-(2,2,2-trifluoroethyl)piperazin-1-yl)methyl)piperazin-1-yl)ethan-1-one] | 3
8 | 60 | C[C@@H]1CN(CC(=O)N2CC(C)(C)c3c2cc(Cc2ccc(F)cc2)c2nc(C#N)nn32)[C@@H](CN2CCOC[C@H]2C)CN1 [Compound 32, 4-(4-fluorobenzyl)-8,8-dimethyl-6-(2-((2R,5R)-5-methyl-2-(((R)-3-methylmorpholino)methyl)piperazin-1-yl)acetyl)-7,8-dihydro-6H-pyrrolo[2,3-e][1,2,4]triazolo[1,5-a]pyridine-2-carbonitrile] | 20
9 | 26 | C[C@@H]1CN(CC(=O)N2CC(C)(C)c3c2cc(Cc2ccc(F)cc2)c2ncnn32)[C@@H](CN2Cc3ccccc3C2=O)CN1 [Compound 94, 2-(((2R,5R)-1-(2-(4-(4-fluorobenzyl)-8,8-dimethyl-7,8-dihydro-6H-pyrrolo[2,3-e][1,2,4]triazolo[1,5-a]pyridin-6-yl)-2-oxoethyl)-5-methylpiperazin-2-yl)methyl)isoindolin-1-one] | 4
10 | 20 | C[C@@H]1CN(CC(=O)N2CC(C)(C)c3c2cc(Cc2ccc(F)cc2)c2nc(N4CCS(=O)(=O)CC4)nn32)[C@@H](CN2CCOC[C@H]2C)CN1 [Compound 199, 1-(2-(1,1-dioxidothiomorpholino)-4-(4-fluorobenzyl)-8,8-dimethyl-7,8-dihydro-6H-pyrrolo[2,3-e][1,2,4]triazolo[1,5-a]pyridin-6-yl)-2-((2R,5R)-5-methyl-2-(((R)-3-methylmorpholino)methyl)piperazin-1-yl)ethan-1-one] | 6
11 | 84 | C[C@@H]1CN(CC(=O)N2CC(C)(C)c3c2cc(Cc2ccc(F)cc2)n2ncnc32)[C@@H](CN2CCOC[C@H]2C)CN1 [Example 25, 1-(5-(4-fluorobenzyl)-9,9-dimethyl-8,9-dihydro-7H-pyrrolo[3,2-c][1,2,4]triazolo[1,5-a]pyridin-7-yl)-2-((2R,5R)-5-methyl-2-(((R)-3-methylmorpholino)methyl)piperazin-1-yl)ethan-1-one] | 11
12 | 120 | C[C@@H]1CN(CC(=O)N2CC(C)(C)c3c2cc(Cc2ccc(F)cc2)c2nc(C(F)(F)F)cn32)[C@@H](CN2CCOC[C@H]2CF)CN1 [Compound 167, 1-(4-(4-fluorobenzyl)-8,8-dimethyl-2-(trifluoromethyl)-7,8-dihydro-6H-imidazo[1,2-a]pyrrolo[2,3-e]pyridin-6-yl)-2-((2R,5R)-2-((3-(fluoromethyl)morpholino)methyl)-5-methylpiperazin-1-yl)ethan-1-one] | 16
13 | 190 | C[C@@H]1CN(CC(=O)N2CC(C)(C)c3c2cc([C@H](O)c2ccc(F)cc2)c2ncnn32)[C@@H](CN2CCOC[C@H]2C)CN1 [Compound 134, 1-(4-((R)-(4-fluorophenyl)(hydroxy)methyl)-8,8-dimethyl-7,8-dihydro-6H-pyrrolo[2,3-e][1,2,4]triazolo[1,5-a]pyridin-6-yl)-2-((2R,5R)-5-methyl-2-(((R)-3-methylmorpholino)methyl)piperazin-1-yl)ethan-1-one] | 83
14 | 72 | C[C@@H]1CN(CC(=O)N2CC(C)(C)c3c2cc(Cc2ccc(F)cc2)c2ncnn32)[C@@H](CN2Cc3cccnc3C2=O)CN1 [Compound 98, 6-(((2R,5R)-1-(2-(4-(4-fluorobenzyl)-8,8-dimethyl-7,8-dihydro-6H-pyrrolo[2,3-e][1,2,4]triazolo[1,5-a]pyridin-6-yl)-2-oxoethyl)-5-methylpiperazin-2-yl)methyl)-5,6-dihydro-7H-pyrrolo[3,4-b]pyridin-7-one] | 8
15 | 8 | C[C@@H]1CN(CC(=O)N2CC(C)(C)c3c2cc(Cc2ccc(F)cc2)c2nc(NC4COC4)nn32)[C@@H](CN2CCOC[C@H]2C)CN1 [Compound 187, 1-(4-(4-fluorobenzyl)-8,8-dimethyl-2-(oxetan-3-ylamino)-7,8-dihydro-6H-pyrrolo[2,3-e][1,2,4]triazolo[1,5-a]pyridin-6-yl)-2-((2R,5R)-5-methyl-2-(((R)-3-methylmorpholino)methyl)piperazin-1-yl)ethan-1-one] | 6
16 | 615 | C[C@@H]1CN(CC(=O)N2CC3(CCOCC3)c3c2cc(Cc2ccc(F)cc2)c2ncnn32)[C@@H](CN2CCOC[C@H]2C)CN1 [Compound 180, 1-(4′-(4-fluorobenzyl)-2,3,5,6-tetrahydrospiro[pyran-4,8′-pyrrolo[2,3-e][1,2,4]triazolo[1,5-a]pyridin]-6′(7′H)-yl)-2-((2R,5R)-5-methyl-2-(((R)-3-methylmorpholino)methyl)piperazin-1-yl)ethan-1-one] | 56
17 | 9 | C[C@@H]1CN(CC(=O)N2CC(C)(C)c3c2cc(Cc2ccc(F)cc2F)c2nn(C(C)(C)CO)c(=O)n32)[C@@H](CN2CCOC[C@H]2C)CN1 [Compound 275, 4-(2,4-difluorobenzyl)-2-(1-hydroxy-2-methylpropan-2-yl)-8,8-dimethyl-6-(2-((2R,5R)-5-methyl-2-(((R)-3-methylmorpholino)methyl)piperazin-1-yl)acetyl)-2,6,7,8-tetrahydro-1H-pyrrolo[2,3-e][1,2,4]triazolo[4,3-a]pyridin-1-one] | 3.1
18 | 180 | CC(c1ccc(F)cc1)c1cc2c(n3ncnc13)C(C)(C)CN2C(=O)CN1C[C@@H](C)NC[C@@H]1CN1CCOC[C@H]1C (stereo partly drawn) [Compound 45, 1-(4-(1-(4-fluorophenyl)ethyl)-8,8-dimethyl-7,8-dihydro-6H-pyrrolo[2,3-e][1,2,4]triazolo[1,5-a]pyridin-6-yl)-2-((2R,5R)-5-methyl-2-(((R)-3-methylmorpholino)methyl)piperazin-1-yl)ethan-1-one] | 40
19 | 120 | C[C@@H]1CN(CC(=O)N2CC(C)(C)c3c2cc(Cc2ccc(F)cc2)c2ncc(Cl)n32)[C@@H](CN2CCOC[C@H]2C)CN1 [Compound 118, 1-(1-chloro-4-(4-fluorobenzyl)-8,8-dimethyl-7,8-dihydro-6H-imidazo[1,2-a]pyrrolo[2,3-e]pyridin-6-yl)-2-((2R,5R)-5-methyl-2-(((R)-3-methylmorpholino)methyl)piperazin-1-yl)ethan-1-one] | 10
